# From patent EP1263420B1 (priority 2000, dated 2001)
# “Also recorded” adds a separate entry of the source.
# How the values were obtained:
# lung tissue RARs = test: Western blot of SENCAR mouse lung tissue after dietary RA; format: in vivo
# Procedure: (§1) The experimental groups were divided in two groups of five mice (Table 5) each including a low and high dose group that were fed either a physiological RA diet of 3µg/g diet) or a pharmacological RA diet (30µg/g diet) for 75 weeks, respectively.
# (§2) SENCAR mice (30) were divided into six experimental groups. The experimental groups were as follows (Table 7): groups 1, 3 and 5 (5 mice each) were fed a physiological RA diet (3µg/g diet) for 1, 14 and 28 days; groups 2, 4 and 6 (each of 5 mice) were fed a pharmacological RA diet (30µg/g diet) for 1, 14 and 28 days.
# (§3) Polyclonal rabbit anti-mouse antibodies against RAR, and (SANTA CRUZ Biotechnology Inc., San Francisco, CA) were used. BM Chemiluminescense Western Blotting Kit (Mouse/Rabbit) was used (Boehringer Mannheim Corporation, Indianapolis) for the Westerns.
# Tissues were collected, frozen in dry ice and kept at -70°C until used. 500mg aliquots were diced in small pieces and homogenized in 300µl of cold PBS, using the hand held homogenizer for 2~3 minutes. Sample and washes were centrifuged at 5000xg for 20 minutes. The pellet was suspended in 400 µl of ice-cold Buffer A [2µl 0.5M EDTA, 10µl 100mM EGTA, 50µl 100mM PMSF, 10µl 1M DTT, 10ml (10mM HEPES pH 7.9 + 10mM KCl)], and left at ice temperature for 15 minutes. 25 µl of 10% solution of NP-40 was added and samples were mixed in a vortex vigorously for 10 seconds. […]
# TGase II [1] = test: TGase II activity in cultured MCF-7 cells; format: cell-based, human
# Procedure: MCF-7 cells were seeded at a density of 1.5 x 10^5 cells/ml medium (500ml DMEM + 56.2ml FBS + 5.6m1 AB/AM) in 6cm diameter dishes for 24 hours and treated with either DMSO, RA, or 13-cis RA at 10^-6 M and grown to confluence (about 72 hours). Cells were harvested and Transglutaminase II activity was measured as described below. Nebulizer solution, inhalation procedures, details of animal housing are described below.
# Cultured cells were placed in 100 µl scraping buffer [A: 2800µl (400µl 0.5M Na-Phosphate, 500µl 0.01M EDTA, 100µl 1M DTT , 9ml PBS total 10ml) + B:700µl (10µl 20mg/ml PMSF 790µl PBS total 800µl)] for each dish. Cells were broken by a sonicator and kept in ice until used. TGase II assay was conducted as described below and previously {8217}.
# Enzyme assay mixtures were prepared by adding 80µl of SUBSTRATE mixture (322.8µl H2O, 120µl 0.5M NaBorate, 60µl 0.01M EDTA, 60µl 0.1M CaCl2, 6µl 1M DTT, 240µl dimethyl casein, 30µl Triton X-100, 1.2µl [^3H]-Putrescine, 120µl Putrescine) to 20µl sample, 20µl scraping buffer for blank control , 20 µl (18µl scraping buffer + 2µl TGase II) for positive control. Samples were mixed in 15ml tubes, the tubes were shaken before putting them into a 28°C water bath for 30 minutes. Reactions were slowed down in an ice bath. 80µl of the incubation mixture was adsorbed onto paper disks. These were immediately dropped into cold 10% TCA (0.1% Putrescine) and washed with agitation for 7 minutes, followed by 2 additional washes with 5% TCA (0.05% putrescine) for 5~7 minutes, and once more with cold (-20°C) 95% ethanol for 5 minutes. Paper disks were dried and placed into 5ml Aquasol, and counted in a Liquid Scintillation Counter. Protein concentration determination was conducted by the Bradford method.
# RARβ = test: Western blot of SENCAR mouse liver after dietary RA; format: in vivo; settings: for RARβ densitometric analysis: male SENCAR mouse liver
# Procedure: as §1, §2, §3
# (§4) Tissues were collected, frozen in dry ice and kept at -70°C until used. 500mg aliquots were diced in small pieces and homogenized in 300µl of cold PBS, using the hand held homogenizer for 2~3 minutes. Sample and washes were centrifuged at 5000xg for 20 minutes. The pellet was suspended in 400 µl of ice-cold Buffer A [2µl 0.5M EDTA, 10µl 100mM EGTA, 50µl 100mM PMSF, 10µl 1M DTT, 10ml (10mM HEPES pH 7.9 + 10mM KCl)], and left at ice temperature for 15 minutes. 25 µl of 10% solution of NP-40 was added and samples were mixed in a vortex vigorously for 10 seconds. Samples were centrifuged at 14,000xg for 1 minute at 4°C and the pellet treated once more in this fashion (resuspended etc.). The supernatant was removed and 100µl of ice-cold Buffer C [4µl 0.5M EDTA, 20µl 100mM EGTA, 20µl 100mM PMSF, 2µl 1 M DTT, 2ml (20mM HEPES pH 7.9 + 0.4M NaCl)] was added. Pellets were resuspended by tapping gently on the bottom of the Eppendorf tubes. Samples were rocked vigorously in a bucket of ice on an orbital shaker for 30 minutes. Samples were centrifuged at 14,000 xg for 5 minutes at 4°C. Protein determination of supernatant was conducted by the Bradford method.
# (§5) Samples were prepared by adding one part of the Sample Buffer to one part of the sample and mixing well. Samples were heated at 95°C for 5 minutes to induce denaturation. 5µl of Rainbow Standard and 5µl ofBiotinylated Molecular Marker were added to parallel wells. 20µg protein per sample was loaded in each lane. Electrophoresis was performed with voltage set at 125V for about 1 ~ 1.5 hours. Gel transfer was executed at 25V for 2 hours. The membrane was stained in Ponceau S. for 5 minutes and destained with one wash of 5% acetic acid. The membrane was then washed in TBS solution until the staining disappeared. Membranes were incubated in 1ml blocking solution and 9ml TBS for 60 minutes. Membranes were incubated in 1ml of blocking solution and 19ml TBS along with 20µl primary antibody solution overnight (dilution of 1 : 1000). Membranes were washed in PBS-Tween 20, 3 times for 10 minutes each. They were finally incubated in 1ml blocking solution and 19ml TBS along with 20µl Antibiotin HRP - Linked Antibody and 2µl of secondary (rabbit anti-mouse antibody) (1 : 10,000 dilution) for 30 minutes. The membranes were washed in PBS - Tween 20, 4 times for 10 minutes each. The film was exposed for development and detection.
# RARγ = test: as above; format: in vivo; settings: for RARγ densitometric analysis: male SENCAR mouse liver
# Procedure: as §1, §2, §3, §4, §5
# RARα = test: as above; format: in vivo; settings: for RARα densitometric analysis: male SENCAR mouse liver
# Procedure: as §1, §2, §3, §4, §5
# TGase II [2] = test: TGase II assay of SENCAR mouse liver tissue after dietary RA; format: in vivo; settings: 75 Weeks
# Procedure: The supernatant was removed and kept in ice until used.
# Reactions were slowed down in an ice bath. […] Protein concentration determination was conducted by the Bradford method.
# [3] = 30µg/g diet versus 3µg/g diet, 75 weeks
# [4] = pharmacological dietary RA over physiological RA (3µg/g diet), day 1
smiles,measurement,setting,value
"CC1=C(/C=C/C(C)=C/C=C/C(C)=C/C(=O)O)C(C)(C)CCC1 [RA, all-trans-retinoic acid]",induction of lung tissue RARs,"lung tissue RARs; long term feeding, 30µg/g diet",failed to induce RARs
same,effect on lung tissue RARs,"lung tissue RARs; time course 1, 14 and 28 days, 30µg/g versus 3µg/g diet, not shown",no effect; also recorded: without any measurable effect on lung tissue RARs
same,fold induction at 1 µM,"TGase II [1]; Homo sapiens, MCF7, 72 h, read-out: stimulating TGase II activity",7.4
same,TGase II Activity,"TGase II [1]; MCF-7 cells, 10^-6 M, 72 hours, DMSO control 0.183",1.359 +/- 0.098 picomoles/µg protein/30 minutes
same,upregulated liver RAR (β),RARβ; [3],13.5 fold
same,RARβ densitometric analysis,"RARβ; 3µg/g diet, 75 weeks",18.9 +/- 7.4 IDV
same,RARβ densitometric analysis,"RARβ; 30µg/g diet, 75 weeks",254 +/- 31.9 IDV
same,stimulated liver RAR (β),RARβ; [4],4 fold
same,upregulated liver RAR (γ),RARγ; [3],12.5 fold
same,RARγ densitometric analysis,"RARγ; 3pg/g diet as printed, 75 weeks",23.1 +/- 6.7 IDV
same,RARγ densitometric analysis,"RARγ; 30µg/g diet, 75 weeks",288 +/- 17.4 IDV
same,stimulated liver RAR (γ),RARγ; [4],2.1 fold
same,upregulated liver RAR (α),RARα; [3],21.8 fold
same,RARα densitometric analysis,"RARα; 3µg/g diet, 75 weeks",12.1 +/- 7.2 IDV
same,RARα densitometric analysis,"RARα; 30µg/g diet, 75 weeks",264 +/- 21.3 IDV
same,stimulated liver RAR (α),RARα; [4],2 fold
same,TGase II assay DPM/µg protein,TGase II [2]; pharmacological RA diet 30µg/g,"49,260 DPM/µg protein"
same,TGase II assay DPM/µg protein,TGase II [2]; physiological RA diet 3µg/g,"9,820 DPM/µg protein"
